# Measurements published in US9217012B2, “Inhibitors of protein tyrosine phosphatases” (Indiana University Research and Technology Corporation, priority 2009, dated 2015).
# Where “and” joins values, the source holds several entries; their conditions need not be identical. Equal values may be shown once. Entries after “also recorded” stand apart in the source; their conditions may differ. Read-outs that look alike come from different tables or passages of the source.
# What was measured:
# [1] = target: PTP-Meg2 (Homo sapiens (Human), UniProt P43378); assay: PTP selectivity panel (pNPP), PTP-Meg2; format: biochemical; conditions: Table 3
# Experimental: (§1) PTP activity was assayed using p-nitrophenyl phosphate (pNPP) as a substrate in DMG buffer (50 mM DMG, pH 7.0, 1 mM EDTA, 150 mM NaCl, 2 mM DTT, 0.1 mg/mL BSA) at 25° C. The assays were performed in 96-well plates. Normally, to determine the IC50 values, the reaction was initiated by the addition of enzyme (final concentration of 10 nM) to a reaction mixture (0.2 mL) containing 2 mM (Km for the substrate) pNPP with various concentrations of inhibitors. The reaction rate was measured using a Spectra Max Plus 384 Microplate Spectrophotometer (Molecular Devices). For compound 10, the final TC-PTP concentration was 0.04 nM. The reactions were incubated at room temperature for 30 min and quenched with 5N NaOH. The absorbance at 405 nm was read on the SpectraMax Plus 384 Microplate Spectrophotometer. For the reversibility test, the enzyme was incubated with the inhibitor at room temperature for 30 min before pNPP was added to initiate the reaction. The reaction was then incubated at room temperature for 30 min and quenched and read. […] To determine the mode of inhibition, the reactions were initiated by the additional enzyme (final concentration for TC-PTP was 0.4 nM and for PTP was 2 nM) to the reaction mixtures (0.2 mL) containing various concentrations of pNPP with different concentrations of the inhibitor. Data were fitted using SigmaPlot Enzyme Kinetics Module (Systat Software, Inc.)
# [2] = target: Lyp (Homo sapiens (Human), UniProt Q9Y2R2); assay: PTP selectivity panel (pNPP), Lyp; format: biochemical; conditions: Table 3
# Experimental: as §1
# [3] = test system: Src phosphorylation in PTP1B−/− mouse embryo fibroblast cells; assay: Effect on Src phosphorylation (pSrc416, pSrc527 immunoblot); format: cell-based; conditions: 2 h treatment
# Experimental: To study the effect of compound 10 on Src phosphorylation, PTP1B^−/− mouse embryo fibroblast cells were grown to 80% confluence before being treated with TC-PTP inhibitor 10 for 2 h. Cells were lysed, and the lysates were cleared by centrifugation at 15 000 rpm for 10 min. 30 μg of total proteins were boiled with sample buffer, separated by SDS-PAGE, transferred electrophoretically to a PVDF membrane, and immunoblotted with anti-pSrc416, anti-pSrc527 antibodies (Invitrogen 44-660G and 44-662G) and antic-Src antibody (Cell Singling Technology #2108) followed by incubation with horseradish peroxidase conjugated secondary antibodies. The blots were developed by the enhanced chemiluminesence technique (ECL kit, Amersham Biosciences).
# To further investigate the specificity of compound 10 inside the cells, the ability of compound 10 to effect Src kinase phosphorylation within the same cells was measured. Src activity is regulated by phosphorylation at two distinct tyrosine residues. Autophosphorylation of Tyr416 in the kinase domain activates Src, while phosphorylation of Tyr527 in the C-terminal tail by the C-terminal Src kinase (Csk) blocks Src activity. Previous studies have shown that PTP1B can remove the inhibitory phosphate from pSrc527, while TC-PTP is capable of dephosphorylating pSrc416 (van Vilet et al., 2005; Bjorge, et al., 2000).
# [4] = target: VHX (Homo sapiens (Human), UniProt Q9NRW4); assay: PTP selectivity panel (pNPP), VHX; format: biochemical; conditions: Table 3
# Experimental: as §1
# [5] = test system: EGFR phosphorylation in PTP1B−/− mouse embryo fibroblast cells; assay: Effect of TC-PTP inhibitor on EGFR phosphorylation (anti-pTyr immunoblot); format: cell-based; conditions: for increase in EGFR phosphorylation compared to DMSO: EGF 2 ng/ml 10 min
# Experimental: To determine the cellular efficacy of 10, its effect on tyrosine phosphorylation of EGFR, a known substrate of TC-PTP (Tiganis et al., 1998; Klingler-Hoffmann et al., 2001; Mattila et al., 2005) was assessed using an antibody against pTyr. The cells were incubated with 10 for 2 hr and subsequently treated either with or without EGF (2 ng/ml) for 10 min.
# PTP1B^−/− cells were treated with TC-PTP inhibitor at indicated concentration for 2 h before EGF treatment. After EGF treatment (2 ng/ml) for 10 min, cells were lysed in 10 mM HEPES, pH 7.4, 150 mM NaCl, 10% Glycerol, 10 mM sodium phosphate, 10 mM sodium fluoride, 1 mM sodium pervanadate, 1 mM benzamidine, 1% Triton X-100, 10 μg/ml leupeptin, and 5 μg/ml aprotinin. Cell lysates were cleared by centrifugation at 15,000 rpm for 10 min. The lysate protein concentration was estimated using the BCA protein assay kit (PIERCE). To detect EGFR phosphorylation levels, 10 μg of anti-EGFR antibody (CELL SIGNALING, #2232) was added to 1 mg of cell lysate and incubated at 4° C. for 2 h. […] of protein A/G-agarose beads were then added and incubated for another 2 h. After extensive washing, the protein complex was boiled with sample buffer, separated by SDS-PAGE, transferred electrophoretically to PVDF membrane, and immunoblotted with anti-pTyr antibodies (MILLIPORE, #05-1050) followed by incubation with horseradish peroxidase-conjugated secondary antibodies. The blots were developed by the enhanced chemiluminescence technique (ECL kit, AMERSHAM BIOSCIENCES).
# PTP1B^−/− mouse embryo fibroblast cells were treated with TC-PTP inhibitor at the indicated concentration for 2 h prior to EGF treatment. After EGF treatment (2 ng/mL) for 10 min, cells were lysed in 10 mM HNEPES, pH 7.4, […], 10% Glycerol, 10 mM sodium phosphate, 10 mM sodium fluoride, 1 mM sodium pervanadate, 1 mM benzamidine, 1% Triton X-100, 10 μg/mL leupeptin, and 5 μg/mL aprotinin. Cell lysates were cleared by centrifugation at 15 000 rpm for 10 min. The lysate protein concentration was estimated using the BAC protein assay kit (Pierce). To detect EGFR phosphorylation levels, 10 μg of anti-EGFR antibody (Cell Signaling, #2232) were added to 1 mg of cell lysate and incubated at 4° C. for 2 h. 20 μL of protein A/G-agarose beads were then added and incubated for another 2 hr. After extensive washing, the protein complex was boiled with sample buffer, separated by SDS-PAGE, transferred electrophoretically to a PVDF membrane, and immunoblotted with anti-pTyr antibodies (Millipore, #5-1050) followed by incubation with horseradish peroxidase conjugalated secondary antibodies. The blots were developed by enhanced chemiluminescence technique (ECL kit, Amersham Biosciences).
# The cellular efficacy of compound 10 was assessed by examining its effect on tyrosine phosphorylation of EGFR, a known substrate of TC-PTP. Referring now to FIG. 2 B. PTP1B^−/− mouse embryo filbroblast cells were incubated with compound 10 at various concentrations for 2 h and subsequently treated either with or without EGF (2 ng/mL) for 10 min Inhibition of TC-PTP is expected to enhance endrogenous levels of phosphorylated EGFR. […] Remarkably, the phosphorylated form of EGFR is increased nearly 2-fold even at an inhibitor concentration of 5 nM (1.2×Ki).
# [6] = target: FAP1 (Homo sapiens (Human), UniProt Q12923); assay: PTP selectivity panel (pNPP), FAP1; format: biochemical; conditions: Table 3
# Experimental: as §1
# [7] = target: TC-PTP (Homo sapiens (Human), UniProt P17706); assay: PTP activity assay with pNPP substrate, TC-PTP; format: biochemical
# Experimental: (§2) The PTP activity was assayed using p-nitrophenyl phosphate (pNPP) as a substrate in DMG buffer at 25° C. […] The reaction rate was measure using a SPECTRAMAX microplate spectrophotometer (Molecular Devices). For the determination of Km, the initial velocity and substrate concentration data were fitted to Michaelis-Menten equation using SIGMAPLOT. […] The assays were performed in 96-well plates. […] The reaction rate was measured using a Spectra Max Plus 384 Microplate Spectrophotometer (Molecular Devices). […] The reactions were incubated at room temperature for 30 min and quenched with 5N NaOH. The absorbance at 405 nm was read on the SpectraMax Plus 384 Microplate Spectrophotometer. For the reversibility test, the enzyme was incubated with the inhibitor at room temperature for 30 min before pNPP was added to initiate the reaction. The reaction was then incubated at room temperature for 30 min and quenched and read. […] Data were fitted using SigmaPlot Enzyme Kinetics Module (Systat Software, Inc.)
# [8] = target: SHP2 (Homo sapiens (Human), UniProt Q06124); assay: PTP selectivity panel (pNPP), SHP2; format: biochemical; conditions: Table 3
# Experimental: as §1
# [9] = target: LAR (Homo sapiens (Human), UniProt P10586); assay: PTP selectivity panel (pNPP), LAR; format: biochemical; conditions: Table 3
# Experimental: as §1
# [10] = target: LMWPTP (Homo sapiens (Human), UniProt P24666); assay: PTP selectivity panel (pNPP), LMWPTP; format: biochemical; conditions: Table 3
# Experimental: as §1
# [11] = target: He-PTP (Homo sapiens (Human), UniProt P35236); assay: PTP selectivity panel (pNPP), He-PTP; format: biochemical; conditions: Table 3
# Experimental: as §1
# [12] = target: PTP1B (Homo sapiens (Human), UniProt P18031); assay: PTP activity assay with pNPP substrate, PTP1B; format: biochemical
# Experimental: as §2
# [13] = target: PTPα (Homo sapiens (Human), UniProt P18433); assay: PTP selectivity panel (pNPP), PTPα; format: biochemical; conditions: Table 3
# Experimental: as §1
# [14] = target: CD45 (Homo sapiens (Human), UniProt P08575); assay: PTP selectivity panel (pNPP), CD45; format: biochemical; conditions: Table 3
# Experimental: as §1
# [15] = test system: CD4 T-cells recovered from patients with type 1 diabetes; assay: pSTAT5 response to IL-2 in CD4 T-cells from type 1 diabetes patients; format: cell-based, human; conditions: cells with elevated TC-PTP pre-treated with compound
# Experimental: An increase in expression of TC-PTP type 1 diabetic subject correlates with a decrease in STAT5 activation (Long et al., 2010). The protein expression levels of STAT5, JAK1, JAK3, and the negative regulator, TC-PTP, and CD4 T-cells of control and type 1 diabetic subjects were measured. […] No differences were found in STAT5, JAK3, or JAK1 protein expression levels between cells from the control group and the group diagnosed with type 1 diabetes. In contrast, TC-PTP expression was uniform in cells recovered from the control group but was increased overall in cells collected from patients with type 1 diabetes. […] This increased expression of TC-PTP correlated with decreased levels of pSTAT5 levels measured after exposure to IL-2.
# [16] = target: Cdc14A (Homo sapiens (Human), UniProt Q9UNH5); assay: PTP selectivity panel (pNPP), Cdc14A; format: biochemical; conditions: Table 3
# Experimental: as §1
# [17] = target: VHR (Homo sapiens (Human), UniProt P51452); assay: PTP selectivity panel (pNPP), VHR; format: biochemical; conditions: Table 3
# Experimental: as §1
# Chain of PTP1B (P18031 whole entry, species assumed): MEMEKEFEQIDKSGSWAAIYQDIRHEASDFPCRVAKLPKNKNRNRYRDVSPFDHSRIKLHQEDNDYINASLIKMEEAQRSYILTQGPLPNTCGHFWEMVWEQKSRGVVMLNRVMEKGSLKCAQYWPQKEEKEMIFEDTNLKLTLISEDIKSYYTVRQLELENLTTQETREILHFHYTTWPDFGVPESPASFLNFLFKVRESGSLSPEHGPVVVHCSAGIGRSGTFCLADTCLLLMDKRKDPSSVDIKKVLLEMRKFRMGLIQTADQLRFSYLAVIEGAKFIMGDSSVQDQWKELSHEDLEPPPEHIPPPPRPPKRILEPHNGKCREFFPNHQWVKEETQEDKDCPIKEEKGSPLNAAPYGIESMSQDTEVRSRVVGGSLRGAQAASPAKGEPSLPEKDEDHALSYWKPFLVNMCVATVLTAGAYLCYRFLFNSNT
# Chain of TC-PTP (P17706 whole entry): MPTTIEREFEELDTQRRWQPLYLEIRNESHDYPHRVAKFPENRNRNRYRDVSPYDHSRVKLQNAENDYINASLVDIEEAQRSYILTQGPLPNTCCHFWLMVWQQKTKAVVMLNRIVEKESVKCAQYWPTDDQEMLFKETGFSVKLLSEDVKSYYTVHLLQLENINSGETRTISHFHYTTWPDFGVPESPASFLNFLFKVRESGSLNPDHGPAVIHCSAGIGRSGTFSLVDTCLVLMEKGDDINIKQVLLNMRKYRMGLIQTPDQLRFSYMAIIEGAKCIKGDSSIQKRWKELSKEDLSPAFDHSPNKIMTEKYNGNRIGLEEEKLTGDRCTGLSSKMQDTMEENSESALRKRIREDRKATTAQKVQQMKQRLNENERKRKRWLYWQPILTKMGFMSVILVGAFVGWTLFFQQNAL
# Chain of VHX (Q9NRW4 whole entry): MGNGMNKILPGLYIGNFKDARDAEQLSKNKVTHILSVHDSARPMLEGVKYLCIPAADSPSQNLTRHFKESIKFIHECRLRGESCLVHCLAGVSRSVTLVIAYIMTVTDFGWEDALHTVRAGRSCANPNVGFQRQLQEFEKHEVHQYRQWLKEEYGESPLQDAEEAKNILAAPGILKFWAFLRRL
# Chain of VHR (P51452 whole entry, species assumed): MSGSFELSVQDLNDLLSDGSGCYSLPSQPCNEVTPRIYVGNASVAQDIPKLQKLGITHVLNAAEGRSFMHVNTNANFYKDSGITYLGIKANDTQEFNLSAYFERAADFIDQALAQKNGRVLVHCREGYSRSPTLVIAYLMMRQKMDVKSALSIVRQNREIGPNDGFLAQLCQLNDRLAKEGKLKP
# Chain of LMWPTP (P24666 whole entry, species assumed): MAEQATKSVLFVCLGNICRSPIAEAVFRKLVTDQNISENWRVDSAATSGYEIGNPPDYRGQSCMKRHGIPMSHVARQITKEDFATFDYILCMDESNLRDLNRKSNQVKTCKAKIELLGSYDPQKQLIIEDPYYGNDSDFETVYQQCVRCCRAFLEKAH
# Chain of SHP2 (Q06124 whole entry, species assumed): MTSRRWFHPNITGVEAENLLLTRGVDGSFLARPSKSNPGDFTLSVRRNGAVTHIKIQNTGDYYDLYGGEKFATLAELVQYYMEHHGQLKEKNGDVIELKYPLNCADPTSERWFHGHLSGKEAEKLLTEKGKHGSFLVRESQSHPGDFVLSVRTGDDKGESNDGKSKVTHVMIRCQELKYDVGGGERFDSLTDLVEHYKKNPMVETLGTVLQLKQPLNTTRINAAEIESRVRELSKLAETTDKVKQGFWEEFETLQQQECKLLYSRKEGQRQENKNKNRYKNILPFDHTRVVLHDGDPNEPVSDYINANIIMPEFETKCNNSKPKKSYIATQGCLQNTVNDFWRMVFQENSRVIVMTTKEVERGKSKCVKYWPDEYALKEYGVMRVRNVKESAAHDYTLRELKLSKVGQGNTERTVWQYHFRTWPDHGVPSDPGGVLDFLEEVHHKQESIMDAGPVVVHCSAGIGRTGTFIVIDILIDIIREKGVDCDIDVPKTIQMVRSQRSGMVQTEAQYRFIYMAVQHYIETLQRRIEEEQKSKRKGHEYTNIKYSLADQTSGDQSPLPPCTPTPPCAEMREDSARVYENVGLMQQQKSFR
# Chain of Lyp (Q9Y2R2 whole entry, species assumed): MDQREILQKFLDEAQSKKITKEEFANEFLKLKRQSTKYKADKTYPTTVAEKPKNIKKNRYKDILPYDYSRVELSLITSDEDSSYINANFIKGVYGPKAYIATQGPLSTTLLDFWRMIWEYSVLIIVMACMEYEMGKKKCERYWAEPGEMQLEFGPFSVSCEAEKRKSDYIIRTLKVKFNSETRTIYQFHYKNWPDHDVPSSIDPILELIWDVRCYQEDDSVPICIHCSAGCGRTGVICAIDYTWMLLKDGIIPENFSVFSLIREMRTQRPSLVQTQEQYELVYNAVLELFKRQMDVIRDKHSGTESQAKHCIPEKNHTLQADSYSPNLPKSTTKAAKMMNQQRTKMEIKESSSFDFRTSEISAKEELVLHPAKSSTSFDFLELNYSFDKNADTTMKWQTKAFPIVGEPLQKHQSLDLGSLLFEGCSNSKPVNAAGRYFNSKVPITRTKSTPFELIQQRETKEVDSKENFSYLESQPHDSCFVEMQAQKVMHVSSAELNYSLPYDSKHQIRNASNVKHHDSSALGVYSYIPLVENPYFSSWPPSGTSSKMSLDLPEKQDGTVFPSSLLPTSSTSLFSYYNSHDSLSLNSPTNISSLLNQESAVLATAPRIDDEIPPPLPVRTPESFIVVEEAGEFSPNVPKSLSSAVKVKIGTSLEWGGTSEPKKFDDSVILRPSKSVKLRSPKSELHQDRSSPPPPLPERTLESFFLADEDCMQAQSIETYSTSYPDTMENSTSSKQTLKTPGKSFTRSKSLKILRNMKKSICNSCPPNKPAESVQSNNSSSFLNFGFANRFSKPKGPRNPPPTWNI
# Chain of LAR (P10586 whole entry, looked up, species assumed): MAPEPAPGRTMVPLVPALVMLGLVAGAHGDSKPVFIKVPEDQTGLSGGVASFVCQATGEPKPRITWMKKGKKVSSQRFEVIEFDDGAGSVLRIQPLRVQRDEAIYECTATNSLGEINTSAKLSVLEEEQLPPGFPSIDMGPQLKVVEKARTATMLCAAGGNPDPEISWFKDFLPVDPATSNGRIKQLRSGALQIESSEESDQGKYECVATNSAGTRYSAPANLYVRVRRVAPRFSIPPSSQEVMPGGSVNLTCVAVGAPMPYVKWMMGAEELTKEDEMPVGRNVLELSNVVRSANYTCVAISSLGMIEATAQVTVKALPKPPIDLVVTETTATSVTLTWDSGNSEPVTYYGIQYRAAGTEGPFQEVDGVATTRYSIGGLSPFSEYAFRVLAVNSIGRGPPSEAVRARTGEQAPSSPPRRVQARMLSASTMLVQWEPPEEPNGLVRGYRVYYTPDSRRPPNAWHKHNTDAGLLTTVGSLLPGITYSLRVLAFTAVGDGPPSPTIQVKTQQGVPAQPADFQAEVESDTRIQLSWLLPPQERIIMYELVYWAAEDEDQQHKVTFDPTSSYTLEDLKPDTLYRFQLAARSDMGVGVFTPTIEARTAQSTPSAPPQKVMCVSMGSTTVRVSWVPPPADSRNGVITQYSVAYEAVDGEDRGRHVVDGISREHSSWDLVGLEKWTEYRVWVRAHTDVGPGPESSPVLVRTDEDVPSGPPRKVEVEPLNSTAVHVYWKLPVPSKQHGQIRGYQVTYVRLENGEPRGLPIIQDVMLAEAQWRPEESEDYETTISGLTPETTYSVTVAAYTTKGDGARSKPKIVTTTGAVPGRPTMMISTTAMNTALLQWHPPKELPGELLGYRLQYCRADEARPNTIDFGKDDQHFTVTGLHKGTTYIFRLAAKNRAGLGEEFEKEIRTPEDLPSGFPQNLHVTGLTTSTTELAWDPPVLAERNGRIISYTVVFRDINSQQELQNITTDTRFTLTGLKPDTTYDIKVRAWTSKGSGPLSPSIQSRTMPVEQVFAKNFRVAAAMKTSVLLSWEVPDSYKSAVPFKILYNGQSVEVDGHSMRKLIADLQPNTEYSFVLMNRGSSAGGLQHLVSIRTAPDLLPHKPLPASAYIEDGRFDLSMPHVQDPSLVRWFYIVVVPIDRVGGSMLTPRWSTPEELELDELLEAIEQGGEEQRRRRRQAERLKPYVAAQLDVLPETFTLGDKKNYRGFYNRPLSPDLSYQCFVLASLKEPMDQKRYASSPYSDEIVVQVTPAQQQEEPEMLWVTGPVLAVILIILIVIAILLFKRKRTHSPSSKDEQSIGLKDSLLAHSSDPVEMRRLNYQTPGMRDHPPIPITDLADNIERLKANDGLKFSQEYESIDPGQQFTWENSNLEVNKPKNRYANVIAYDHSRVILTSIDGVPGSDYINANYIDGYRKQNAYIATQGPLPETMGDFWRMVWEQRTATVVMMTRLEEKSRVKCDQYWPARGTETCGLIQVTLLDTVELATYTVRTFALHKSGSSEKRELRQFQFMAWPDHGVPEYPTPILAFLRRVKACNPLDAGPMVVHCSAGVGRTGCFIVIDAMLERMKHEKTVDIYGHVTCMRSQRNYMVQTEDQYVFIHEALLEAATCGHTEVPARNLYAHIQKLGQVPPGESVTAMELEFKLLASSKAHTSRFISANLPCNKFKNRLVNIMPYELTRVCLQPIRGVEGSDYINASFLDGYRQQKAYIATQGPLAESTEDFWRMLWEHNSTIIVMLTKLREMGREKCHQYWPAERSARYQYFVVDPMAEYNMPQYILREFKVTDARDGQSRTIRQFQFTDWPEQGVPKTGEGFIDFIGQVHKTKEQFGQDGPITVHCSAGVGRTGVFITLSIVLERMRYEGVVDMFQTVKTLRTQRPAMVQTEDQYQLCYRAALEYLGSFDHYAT
compound,measurement,setting,value
CCc1ccc(C(=O)NCCCCC(NC(=O)C(Cc2ccc(C(F)(F)P(=O)(O)O)cc2)NC(=O)C(Cc2ccccc2)NC(=O)COC2CC(C)CCC2C(C)C)C(N)=O)cc1 (stereo not drawn) [Compound 10],Ki,[1],> 1 µM
same,Ki,[2],> 1 µM
same,pSrc416 phosphorylation,[3],dose-dependent increase
same,pSrc527 phosphorylation,[3],no significant change
same,Ki,[4],> 1 µM
same,"effect on EGFR phosphorylation, dose dependence","[5]; 0-50 nM, 2 h",enhanced EGFR phosphorylaltion in a dose-dependent fashion; also recorded: augmented EGFR phosphorylation in a dose dependent manner
same,increase in EGFR phosphorylation compared to DMSO,"[5]; 5 nM, 2 h",~2 fold and 1.9 fold
same,increase in EGFR phosphorylation compared to DMSO,"[5]; 10 nM, 2 h",3.4 fold
same,increase in EGFR phosphorylation compared to DMSO,"[5]; 20 nM, 2 h",3.9 fold
same,increase in EGFR phosphorylation compared to DMSO,"[5]; 50 nM, 2 h",5.0 fold
same,Ki,[6],> 1 µM
same,IC50,"[7]; IC50 with TC-PTP preincubation, enzyme preincubated with inhibitor 30 min, 0.04 nM TC-PTP",0.0087 ± 0.0014 µM
same,IC50,"[7]; IC50 without TC-PTP preincubation, no preincubation, 0.04 nM TC-PTP",0.0092 ± 0.0014 µM
same,selectivity for TC-PTP over PTP1B,[7]; TC-PTP versus PTP1B,8 fold and 5.6 fold
same,Ki,"[7]; Table 3, Example 13, read-out: Ki (TC-PTP)",0.0043 ± 0.0002 µM
same,mode of inhibition of TC-PTP,[7]; kinetic analysis,reversible TC-PTP inhibitor; also recorded: reversible and competitive inhibitor
same,Ki,"[7]; tight binding inhibition equation, Table 1, read-out: Ki for TC-PTP",0.0041 ± 0.0002 µM
same,selectivity versus a panel of PTPs,"[7]; versus SHP2, Lyp, HePTP, PTP-Meg2, FAP1, CD45, LAR, PTPa, VHR, VHX, CDC14A, low molecular weight PTP",more than 200 fold
same,Ki,[8],> 1 µM
same,Ki,[9],> 1 µM
same,Ki,[10],> 1 µM
same,Ki,[11],> 1 µM
same,Ki,"[12]; Table 3, Example 13, read-out: Ki (PTP1B)",0.034 ± 0.0028 µM
same,mode of inhibition of PTP1B,[12]; kinetic analysis,reversible and competitive inhibitor
same,Ki,"[12]; tight binding inhibition equation, Table 1, read-out: Ki for PTP1B",0.0231 ± 0.0007 µM
same,Ki,[13],> 1 µM
same,Ki,[14],> 1 µM
same,rescue of decreased response to IL-2 (pSTAT5),[15],rescued in a concentration dependent manner
same,Ki,[16],> 1 µM
same,Ki,[17],> 1 µM
CCc1ccc(C(=O)NCCCCC(NC(=O)C(Cc2ccccc2)NC(=O)C(Cc2ccccc2)NC(=O)COC2CC(C)CCC2C(C)C)C(N)=O)cc1 (stereo not drawn) [Compound 11],effect on EGFR phosphorylation,[5]; 200 nM,no effect
"O=C(N[C@@H](Cc1ccc(C(F)(F)P(=O)(O)O)cc1)C(=O)O)OCC1c2ccccc2-c2ccccc21 [Fmoc-F2Pmp-OH, reference compound]",IC50,"[7]; known competitive ligand, read-out: IC50 for TC-PTP",20 µM
same,IC50,[12]; known competitive ligand,20 µM
